PMC4186413, “Identification of metabolic pathways and enzyme systems involved in the in vitro human hepatic metabolism of dronedarone, a potent new oral antiarrhythmic drug” (Pharmacology Research & Perspectives, 2014)

Tests used:
CYP3A4 = test: Contribution of CYP3A4 to hepatocyte clearance (ketoconazole inhibitory effect); assay type: in vitro ADME, human; conditions: for Effect of ketoconazole on metabolism in hepatocytes: 5 μmol/L drug; for fm CYP3A4, Mean ± SD: mean of hepatocyte preparations
Protocol: (§1) Experiments were performed in 48-well plastic plates coated with rat tail Collagen type I. Plates were seeded with 0.16 × 10^5 hepatocytes per well in a final volume of 0.2 mL and incubated at 37°C under a 95% humidified air and 5% CO2 atmosphere. After 3 h during which cells were allowed to attach, the medium was renewed with 0.1 mL serum-free medium. Then, the investigated drug or metabolic probe(s) were added directly to the incubation medium in the absence or the presence of inhibitors such as either ketoconazole as a specific and potent CYP3A inhibitor (3 μmol/L final concentration), clorgyline (0.25 μmol/L final concentration) as a potent MAO-A inhibitor or ABT as a potent but nonselective CYP isoforms inhibitor (1 mmol/L final concentration) (Fabre et al. [1988]; Bourrié et al. [1996]; Klieber et al. [2008]). Regardless of the final concentration investigated, the final solvent (DMSO) concentration never exceeded 0.2% (v/v).
(§2) To determine the metabolism of the different compounds (metabolic probes, dronedarone, N-debutyl-dronedarone, propanoic acid-dronedarone, phenol-dronedarone, and C-dealkyl-dronedarone), kinetic studies were performed over 0–24 h. For each time point, 0.1 mL of acetonitrile was added to the specific well for protein precipitation, and both extracellular medium and the cell fraction were scraped together. Cell extracts were transferred to a glass tube and stored at −20°C until analysis. Before analysis, cell homogenates were sonicated for a few seconds, homogenized and centrifuged at 6000 g for 10 min. Supernatant fluids were then analyzed for the different drugs and their specific metabolites.
(§3) The fraction metabolized (fm) by MAO, CYP3A or total CYPs was determined using the following equation: [drawing 3] where: kei is the elimination rate constant (expressed in h^−1) in the presence of the inhibitor.
(§4) The kinetics of drug disappearance were investigated using four different cryopreserved human hepatocyte preparations in primary cultures following incubation with either dronedarone or its metabolites at a concentration of 5 μmol/L. Incubations were performed either in the absence, that is control conditions, or in the presence of enzyme system inhibitors such as 3 μmol/L ketoconazole (specific and potent inhibitor of CYP3A4/5), 1 mmol/L ABT (a potent and […] inhibitor of total CYPs), or 0.25 μmol/L clorgyline (a potent MAO-A inhibitor) (Dorris [1982]). Kinetic studies were performed over 24 h.

[1] = Oxidative metabolism by human hepatic microsomal fractions with or without NADPH; assay type: in vitro ADME; conditions: 1 mg·mL^−1, 5 μmol/L, 30 min
Protocol: Human hepatic microsomal fractions were obtained from a large pool of human liver (150 individuals) prepared by BD Gentest-Biosciences (BD UltraPool™ HLM 150 – catalogue reference, 452118 Easy Count Box, Woburn, MA). This pooled human liver microsomal batch was also validated internally by the use of FDA-recommended CYP probes (FDA guidance for Industry, draft guidance February 2012).
(§5) For oxidative pathways, the assay mixture was composed of human liver microsomes (1 mg·m·L^−1) or microsomes of baculovirus-infected cells expressing human enzymes (100 pmol·mL^−1 for CYPs and 1 mg·mL^−1 for FMOs and MAOs), nicotinamide adenine dinucleotide phosphate reduced form (NADPH) (1 mmol/L), 100 mmol/L potassium phosphate (pH 7.4), and 5 μmol/L of the investigated compound dissolved in DMSO in a final volume of 500 μL.
(§6) The final concentration of DMSO in the reaction mixture was less than 1% (v/v). Initial rate conditions with respect to time and protein concentration for both the disappearance of unchanged drug and the formation of respective metabolites were established in preliminary studies. The enzyme reaction was initiated by addition of NADPH (10 mmol/L aqueous solution) to achieve a final concentration of 1 mmol/L for oxidative CYP- and FMO-dependent reactions or by the drug for MAO-dependent reactions, incubated at 37°C and stopped after 0–30 min by addition of one volume of ice-cold acetonitrile.
After removal of the proteins by centrifugation at 10,000 rpm for 10 min, a portion of the supernatant was analyzed by LC-UV-MS.
(§7) In human liver microsomes and recombinant isoforms, the percentage of metabolism was determined on the basis of unchanged drug disappearance, using the following equation [drawing 1] where UDt = 30 min represents the unchanged drug peak area after a 30-min incubation period and UDt = 0, the unchanged drug peak area at t = 0.
Dronedarone and its metabolites were incubated over 30 min with human hepatic microsomal fractions (1 mg·mL^−1) at a final concentration of 5 μmol/L, in the absence or the presence of 1 mmol/L NADPH, the cofactor for CYP- and FMO-dependent reactions.

[2] = system: CYP1A1, -1A2, -2A6, -2B6, -C8, -2C9, -2C18, -2C19, -2D6, -2E1, -3A4, and -3A5; test: Oxidation by the panel of recombinant human CYP isoforms; assay type: in vitro ADME; conditions: 100 pmol/mL, 5 μmol/L, 30 min, NADPH; for Oxidation by the other CYP isoforms of the panel: isoforms other than those named for the drug
From the text: Recombinant human CYPs (Supersomes™; BD Gentes, Woburn, MA: CYP1A1, CYP1A2, CYP2A6, CYP2B6, CYP2C8, CYP2C9, CYP2C18, CYP2C19, CYP2D6, CYP2E1, CYP3A4 and CYP3A5), FMOs (Supersomes™: FMO1, FMO3, FMO5), MAOs (Supersomes™: MAO-A and MAO-B), and UGTs (Supersomes™: UGT1A1, UGT1A3, UGT1A4, UGT1A6, UGT1A7, UGT1A8, UGT1A9, UGT1A10, UGT2B4, UGT2B7, UGT2B15, and UGT2B17) expressed in baculovirus-infected insect cells and control microsomes from insect cells infected with wild-type baculovirus were all obtained from BD Gentest (Woburn, MA).
as §5, §6, §7
To identify the specific isoforms that are capable of oxidizing dronedarone and its metabolites, assays were performed using c-DNA-expressed isoforms belonging to CYP- (CYP1A1, -1A2, -2A6, -2B6, -C8, -2C9, -2C18, -2C19, -2D6, -2E1, -3A4, and -3A5), FMO- (FMO-1, -3, and -5) and MAO- (MAO-A and MAO-B) families.
Figure 5 Contribution of individual CYPs, FMOs and MAOs to the oxidation of dronedarone and its metabolites. Individual CYPs (100 pmol/mL), FMOs (1 mg/mL) and MAOs (1 mg/mL) were incubated with either dronedarone (A) or its metabolites, N-debutyl-dronedarone (B), propanoic acid-dronedarone (C), and phenol-dronedarone (D), at a concentration of 5 μmol/L, for 30 min at 37°C in the presence of NADPH, except for MAOs where incubations were performed in the absence of cofactor. Unchanged drugs were quantified by LC/MS-MS relative to the synthetic references as described in Materials and Methods. Data are expressed as the percentage of oxidation.

Total CYPs = test: Contribution of total CYPs to hepatocyte clearance (1-aminobenzotriazole inhibitory effect); assay type: in vitro ADME, human; conditions: for Effect of ABT on metabolism in hepatocytes (words): 1 mmol/L ABT, 5 μmol/L drug; for fm Total CYPs, Mean ± SD: mean of hepatocyte preparations
Protocol: as §1, §2, §3, §4

[3] = BD-91, 1 mmol/L 1-aminobenzotriazole
[4] = BD-296, 1 mmol/L 1-aminobenzotriazole
[5] = HU-1358, 1 mmol/L 1-aminobenzotriazole
[6] = IVT-IBG, 1 mmol/L 1-aminobenzotriazole

Row | Compound | Effect of ketoconazole on metabolism in hepatocytes (CYP3A4; 3 μmol/L ketoconazole) | Parent drug metabolized by human hepatic microsomes ([1]; absence of NADPH) | Parent drug metabolized by human hepatic microsomes ([1]; presence of 1 mmol/L NADPH) | Metabolism by any of the different CYPs [2] | Effect of ABT on metabolism in hepatocytes (words) (Total CYPs) | fm CYP3A4 (CYP3A4; BD-91, 3 μmol/L ketoconazole) [%] | fm CYP3A4 (CYP3A4; BD-296, 3 μmol/L ketoconazole) [%] | fm CYP3A4 (CYP3A4; HU-1358, 3 μmol/L ketoconazole) [%] | fm CYP3A4 (CYP3A4; IVT-IBG, 3 μmol/L ketoconazole) [%] | fm CYP3A4, Mean ± SD (CYP3A4; 3 μmol/L ketoconazole) [%] | Oxidation by the other CYP isoforms of the panel [2] | fm Total CYPs (Total CYPs; [3]) [%] | fm Total CYPs (Total CYPs; [4]) [%] | fm Total CYPs (Total CYPs; [5]) [%] | fm Total CYPs (Total CYPs; [6]) [%] | fm Total CYPs, Mean ± SD (Total CYPs; 1 mmol/L 1-aminobenzotriazole) [%] | Effect of ABT on metabolism in hepatocytes (words) (Total CYPs; listed as phenol-dronedarone)
1 | CCCCN(CCCC)CCCOc1ccc(C(=O)O)cc1 [C-dealkyl-dronedarone] | no effect | No metabolism was observed | No metabolism was observed | not metabolized | no effect | – | – | – | – | – | – | – | – | – | – | – | –
2 | CCCCNCCCOc1ccc(C(=O)c2c(CCCC)oc3ccc(NS(C)(=O)=O)cc23)cc1 [N-debutyl-dronedarone] | no inhibitory effect | 25–30% | 25–30% | – | moderately decreased its metabolic rate | 7 | 4 | 8 | 0 | 5 ± 3 | Neither other CYPs nor FMOs metabolized N-debutyl-dronedarone to any significant extent | 67 | 48 | 51 | 54 | 55 ± 7 | –
3 | CCCCc1oc2ccc(NS(C)(=O)=O)cc2c1C(=O)c1ccc(OCCC(=O)O)cc1 [Propanoic acid-dronedarone] | very minor inhibitory effect | No metabolism occurred | 50% | – | potently inhibited | 36 | 41 | 33 | 34 | 36 ± 3 | Neither other CYPs, nor FMOs and MAOs metabolized propanoic acid-dronedarone to any significant extent | 87 | 92 | 91 | 89 | 90 ± 3 | –
4 | CCCCc1oc2ccc(NS(C)(=O)=O)cc2c1C(=O)c1ccc(OCCCN(CCCC)CCCC)cc1.Cl [Dronedarone, N-(2-Butyl-3-(4-(3-(dibutylamino)propoxy)benzoyl)-5-benzofuranyl)methanesulfonamide, hydrochloride] | predominant inhibitory effect | not metabolized | ~60% | – | predominant inhibitory effect | 95 | 95 | 84 | 80 | 89 ± 7 | less than 15% | 98 | 99 | 98 | 95 | 98 ± 2 | –
5 | CCCCc1oc2ccc(NS(C)(=O)=O)cc2c1C(=O)c1ccc(O)cc1 [Phenol-dronedarone] | did not contribute | very slow | very slow | – | did not contribute | – | – | – | – | – | contributed to a very small extent | – | – | – | – | – | no significant effect
